Measurements from ChEMBL document CHEMBL1136619, “Synthesis of a new family of glycolipidic nitrones as potential antioxidant drugs for neurodegenerative disorders” (Bioorg Med Chem Lett, 2003).

System: neuronal
Test: Cytotoxic activity in cultured neuronal cells determined using MTT viability assay
Assay type: functional, cell-based

## CCCCCCCCCCCCSCC(C)(C)/[N+]([O-])=C/c1ccc(CNC(=O)[C@H](O)[C@@H](O)[C@H](O[C@@H]2O[C@@H](CO)[C@H](O)[C@H](O)[C@@H]2O)[C@H](O)CO)cc1
  Concentration: 400 µM
